According to patent publication US20240252552A1, “LIPOTEICHOIC ACID FROM STAPHYLOCOCCUS EPIDERMIDIS AND ITS USE TO MODULATE NEURONAL ACTIVITY VIA PD-1 INHIBITORY SIGNALLING IN NEURONS” (Northwestern University, priority 2023, published 2024):
Entries after “also recorded” stand apart in the source; their conditions may differ.

Assays:
[1] = system: trigeminal ganglion (TG) neurons; assay: Real-time Ca2+ imaging (fura-2 AM) of ATP-stimulated TG neuronal cultures; assay type: cell-based, C57Bl/6 mice; details: TG neurons preincubated with MMG11
From the text: FIG. 8. […] Analysis with Student's t test, p<0.0001.
SELTA-induced inhibition of Ca^2+ influx is reversed by neutralizing PD-1. In the transduction of nociceptive signal, Ca^2+ influx through voltage-gated Ca^2+ channels is critical for neurotransmitter release and synaptic transmission (12-14). To investigate whether intracellular Ca^2+ dynamics in the afferents are affected by SELTA (8, 15), the inventor established in vitro trigeminal ganglion (TG) neuronal cultures from adult C57Bl/6 mice and performed real-time Ca^2+ imaging using fura-2 AM (FIG. 8). Cells were pretreated with vehicle or SELTA prior to stimulation with 20 uM ATP. TLR2 specificity of these effects were examined by using MMG11, a TLR2-specific antagonist (10) and PD-1 requirement was examined by pre-incubation with an anti-PD-1 antibody (16).

[2] = system: PD-1; assay: PD-1 expression in ex vivo dorsal root ganglion culture (immunofluorescence, qPCR); assay type: cell-based; details: ex vivo DRG, MMG11 + SELTA, TLR2 blockade
From the text: FIGS. 5A, 5B, 5C, 5D, and 5E. […] Scale bars=10 μm. (B) Distribution of intensity of PD-1 immunoreactivity in DRG based on the size of individual neurons in control (upper) and SELTA treatment (bottom). […] For all quantification analysis, a two-way ANOVA was used. *P<0.05, **P<0.01, #P<0.05. n=3 to 4 per group.
SELTA elevated PD-1 expression in primary sensory neurons. The inventor next examined PD-1 expression in the primary afferent neurons following direct exposure to SELTA. The inventor performed an ex vivo dorsal root ganglion (DRG) culture using DRG isolated at the levels of L2 to S1. Following 24-hour co-culture with SELTA, the expression of PD-1 was probed using immunofluorescence followed by confocal microscopy (FIG. 5A). To ascertain the cellular distribution of increased PD-1 expression, ImageJ analyses-based on individual cells were done and presented as the function of PD-1 immunoreactivity intensity to the cell size (FIG. 5B). Quantification was based on cell size-differential average fluorescence intensity (FIG. 5C). […] To further understand the expression of PD-1, immunoreactive intensities were normalized to the neuronal marker Neu-N (FIG. 5D). Changes were largely similar to FIG. 5C. The inventor next sought to examine whether the SELTA receptor TLR2 was involved in the modulation of PD-1 expression by SELTA. […]

Compound: CCOC(=O)c1ccc(CC(=O)c2ccc(O)c(O)c2O)o1 [MMG11]
- effect of TLR2 blockade on SELTA-mediated inhibition of Ca2+ influx [1]: abrogated the SELTA mediated inhibition of Ca^2+ influx; also recorded: reverses SELTA-induced reduction of Ca2+ influx
- effect on SELTA-induced PD-1 mRNA expression (qPCR) [2]: abrogated the elevation in PD-1 expression
